Test results reported in ChEMBL document CHEMBL3745698, “α-Aryl-N-aryl nitrones: Synthesis and screening of a new scaffold for cellular protection against an oxidative toxic stimulus” (Bioorg Med Chem, 2016).
Calls of active or inactive are those of the source. The calls are words filed in the database; no cut-off is given here.

Tests used:
SH-SY5Y [1] = test: Cytoprotective activity against H2O2-induced toxicity in human SH-SY5Y cells assessed as increase in cell viability at 1 uM preincubated for 24 hrs followed by H2O2 addition measured after 24 hrs by MTT assay relative to control; assay type: functional
SH-SY5Y [2] = test: Cytoprotective activity against H2O2-induced toxicity in human SH-SY5Y cells assessed as increase in cell viability at 1 uM preincubated for 24 hrs followed by H2O2 addition measured after 24 hrs by MTT assay relative to PBN; assay type: functional
SH-SY5Y [3] = test: Cytoprotective activity against H2O2-induced oxidative stress in human SH-SY5Y cells at 1 uM preincubated for 24 hrs followed by H2O2 addition measured after 24 hrs by DCFHDA dye-based flow cytometric analysis; assay type: functional, cell-based
SH-SY5Y [4] = test: Cytoprotective activity against H2O2-induced apoptosis in human SH-SY5Y cells assessed as early apoptotic cells at 1 uM preincubated for 24 hrs followed by H2O2 addition measured after 24 hrs by annexin V-FITC/propidium iodide staining-based flow cytometric analysis relative to control; assay type: functional
SH-SY5Y [5] = test: Cytoprotective activity against H2O2 stressed human SH-SY5Y cells assessed as increase in glutathione level at 1 uM preincubated for 24 hrs followed by H2O2 addition measured after 24 hrs by spectrophotometric analysis; assay type: functional
SH-SY5Y [6] = test: (§1) Cytoprotective activity against H2O2-induced apoptosis in human SH-SY5Y cells assessed as late apoptotic cells at 1 uM preincubated for 24 hrs followed by H2O2 addition measured after 24 hrs by annexin V-FITC/propidium iodide staining-based flow cytometric analysis (reference value: 2.78 +/- 0.53%); assay type: functional
SH-SY5Y [7] = test: Cytoprotective activity against H2O2-induced apoptosis in human SH-SY5Y cells assessed as dead cells at 1 uM preincubated for 24 hrs followed by H2O2 addition measured after 24 hrs by annexin V-FITC/propidium iodide staining-based flow cytometric analysis (reference value: 25.81 +/- 3.57%); assay type: functional
SH-SY5Y [8] = test: as §1, with “100 nM” for “1 uM”; assay type: functional
SH-SY5Y [9] = test: Cytoprotective activity against H2O2-induced apoptosis in human SH-SY5Y cells assessed as dead cells at 100 nM preincubated for 24 hrs followed by H2O2 addition measured after 24 hrs by annexin V-FITC/propidium iodide staining-based flow cytometric analysis (reference value: 25.81 +/- 3.57%); assay type: functional
SH-SY5Y [10] = test: Cytoprotective activity against H2O2-induced apoptosis in human SH-SY5Y cells assessed as early apoptotic cells at 100 nM preincubated for 24 hrs followed by H2O2 addition measured after 24 hrs by annexin V-FITC/propidium iodide staining-based flow cytometric analysis relative to control; assay type: functional
SH-SY5Y [11] = test: Toxicity in H2O2 stressed human SH-SY5Y cells assessed as effect on total glutathione level at 1 uM preincubated for 24 hrs followed by H2O2 addition measured after 24 hrs by spectrophotometric analysis; assay type: cell-based
SH-SY5Y [12] = test: Cytoprotective activity against H2O2-induced apoptosis in human SH-SY5Y cells assessed as viable cells at 1 uM preincubated for 24 hrs followed by H2O2 addition measured after 24 hrs by annexin V-FITC/propidium iodide staining-based flow cytometric analysis (reference value: 71.08 +/- 2.34%); assay type: functional; details: read-out: Activity

In the case of `Cc1ccc(/[N+]([O-])=C/c2ccncc2)cc1C`, the Activity (SH-SY5Y [1]) is reported as 71% and the Activity (SH-SY5Y [2]) is reported as 42%.
In the case of `CC(C)(C)/[N+]([O-])=C\c1ccccc1`, the Activity (SH-SY5Y [3]) is reported as “Active”, the Activity (SH-SY5Y [4]) is reported as 0.03% and the Activity (SH-SY5Y [5]) is reported as 65%. It also gave an Activity (SH-SY5Y [6]) of 2.4% and an Activity (SH-SY5Y [7]) of 9.42%.
`[O-]/[N+](=C\c1ccncc1)c1ccccc1` gave an Activity (SH-SY5Y [1]) of 71% and an Activity (SH-SY5Y [2]) of 42%.
Compound `CN[C@@H]1C[C@H]2O[C@@](C)([C@@H]1OC)n1c3ccccc3c3c4c(c5c6ccccc6n2c5c31)C(=O)NC4` [STAUROSPORINE] has an Activity (SH-SY5Y [8]) of 14.49%, an Activity (SH-SY5Y [9]) of 6.19% and an Activity (SH-SY5Y [10]) of 2.63%.
With `[O-]/[N+](=C\c1ccc2c(c1)OCO2)c1ccccc1` the Activity (SH-SY5Y [1]) was 71% and the Activity (SH-SY5Y [2]) was 42%.
`Cc1ccc(/[N+]([O-])=C/c2ccc3c(c2)OCO3)cc1C` showed an Activity (SH-SY5Y [1]) of 71% and an Activity (SH-SY5Y [2]) of 42%.
In the case of `[O-]/[N+](=C\c1ccc2c(c1)OCO2)c1ccc(Cl)cc1`, the Activity (SH-SY5Y [1]) is reported as 71% and the Activity (SH-SY5Y [2]) is reported as 42%.
With `Cc1ccc(/[N+]([O-])=C/c2ccccc2)cc1C` the Activity (SH-SY5Y [3]) was “Active”, the Activity (SH-SY5Y [4]) was 0% and the Activity (SH-SY5Y [1]) was 95%. For the same compound, the Activity (SH-SY5Y [11]) was “Non-toxic”, the viability at 1 µM (SH-SY5Y [12]) was 85% and the Activity (SH-SY5Y [5]) was 65%. The Activity (SH-SY5Y [6]) was 1.21%, the Activity (SH-SY5Y [7]) was 9.13% and the Activity (SH-SY5Y [2]) was 42%.
`[O-]/[N+](=C\c1ccccc1)c1ccc(Cl)cc1` was tested, and the Activity (SH-SY5Y [1]) was 71% and the Activity (SH-SY5Y [2]) was 42%.
Compound `[O-]/[N+](=C\c1ccncc1)c1ccc(Cl)cc1` has an Activity (SH-SY5Y [1]) of 71% and an Activity (SH-SY5Y [2]) of 42%.
In the case of `[O-]/[N+](=C\c1ccccc1)c1ccccc1`, the Activity (SH-SY5Y [3]) is reported as “Active”, the Activity (SH-SY5Y [4]) is reported as 0% and the Activity (SH-SY5Y [1]) is reported as 71%. For the same compound, the Activity (SH-SY5Y [11]) was “Non-toxic”, the viability at 1 µM (SH-SY5Y [12]) was 85% and the Activity (SH-SY5Y [5]) was 65%. For the same compound, the Activity (SH-SY5Y [6]) was 1.56%, the Activity (SH-SY5Y [7]) was 3.78% and the Activity (SH-SY5Y [2]) was 42%.
